{"source": "patent US8252822B2", "about": "“Heterocyclic compounds and uses as anticancer agents” (Acea Biosciences, Inc., priority 2007, dated 2012)", "key": {"Hela": {"tested_on": "Hela", "assay": "RT-CES cell proliferation inhibition, Hela", "type": "cell-based", "settings": "Homo sapiens", "from_the_text": "(§1) The biological activity of compounds disclosed herein was monitored and profiled using the Real-Time Cell Electronic Sensing (RT-CES®) system from ACEA Biosciences, Inc. The RT-CES system utilizes cell-substrate impedance technology to monitor cellular behavior inside tissue culture wells in a microtiter plate format. The technology features in the integration of molecular and cell biology with microelectronics and is based on the electronic detection of biological assay process. The details of this cell electronic sensing technology and associated devices, systems and methods of use as described in U.S. provisional application No. 60/379,749, filed on Jul. […]\n(§2) For measurement of cell-substrate or cell-electrode impedance using RT-CES technology, microelectrodes having appropriate geometries are fabricated onto the bottom surfaces of microtiter plate or similar device, facing into the wells. […] When there are changes to the biological status of the cells analogue electronic readout signals are measured automatically and in real time, and are converted to digital signals for processing and for analysis. In a RT-CES system, a cell index (arbitrary representation of change in impedance) is automatically derived and provided based on measured electrode impedance values. […]\n(§3) To quantify cell status based on the measured cell-electrode impedance, a parameter termed Cell Index is derived. […]"}, "GTL16": {"tested_on": "GTL16", "assay": "RT-CES cell proliferation inhibition, GTL16", "type": "cell-based", "settings": "Homo sapiens, GTL 16", "from_the_text": "as §1, §2, §3"}, "MCF7": {"tested_on": "MCF7", "assay": "RT-CES cell proliferation inhibition, MCF7", "type": "cell-based", "settings": "Homo sapiens", "from_the_text": "as §1, §2, §3"}, "HT1080": {"tested_on": "HT1080", "assay": "RT-CES cell proliferation inhibition, HT1080", "type": "cell-based", "settings": "Homo sapiens, HT-1080", "from_the_text": "as §1, §2, §3"}, "A549 cells": {"tested_on": "A549 cells", "assay": "RT-CES cell proliferation inhibition, A549", "type": "cell-based, Human", "settings": "for IC50: Homo sapiens", "from_the_text": "The biological activity of compounds disclosed herein was monitored and profiled using the Real-Time Cell Electronic Sensing (RT-CES®) system from ACEA Biosciences, Inc. The RT-CES system utilizes cell-substrate impedance technology to monitor cellular behavior inside tissue culture wells in a microtiter plate format. The technology features in the integration of molecular and cell biology with microelectronics and is based on the electronic detection of biological assay process. The details of this cell electronic sensing technology and associated devices, systems and methods of use as described in U.S. provisional application No. 60/379,749, filed on Jul. 20, 2002; U.S. provisional application No. 60/435,400, filed on Dec. 20, 2002; U.S. Provisional application 60/469,572, filed on May 9, 2003, PCT application number PCT/US03/22557, filed on Jul. 18, 2003; PCT application number PCT/US03/22537, filed on Jul. 18, 2003; U.S. patent application Ser. No. 10/705,447, filed on Nov. 10, 2003; U.S. patent application Ser. No. 10/705,615, filed on Nov. 10, 2003, each of which is incorporated by reference. Additional details of RT-CES technology is further disclosed in U.S. provisional application No. 60/519,567, filed on Nov. 12, 2003, and U.S. provisional application No. 60/542,927, filed on Feb. 9, 2004.\nFor measurement of cell-substrate or cell-electrode impedance using RT-CES technology, microelectrodes having appropriate geometries are fabricated onto the bottom surfaces of microtiter plate or similar device, facing into the wells. Cells are introduced into the wells of the devices, and make contact to and attach to the electrode surfaces. The presence, absence or change of properties of cells affects the electronic and ionic passage on the electrode sensor surfaces. Measuring the impedance between or among electrodes provides important information about biological status of cells present on the sensors. When there are changes to the biological status of the cells analogue electronic readout signals are measured automatically and in real time, and are converted to digital signals for processing and for analysis. In a RT-CES system, a cell index (arbitrary representation of change in impedance) is automatically derived and provided based on measured electrode impedance values. The cell index obtained for a given well reflects: 1) how many cells are attached to the electrode surfaces in this well; 2) how well cells are attached to the electrode surfaces in this well. Thus, the more the cells of same type in similar physiological conditions attach the electrode surfaces, the larger the cell index. And, the better the cells attach to the electrode surfaces (e.g., the cells spread-out more to have larger contact areas, or the cells attach tighter to electrode surfaces), the larger the cell index.\nThe RT-CES system comprises three components, an electronic sensor analyzer, a device station and 16× or 96× microtiter devices. Microelectrode sensor array was fabricated on glass slides with lithographical microfabrication methods and the electrode-containing slides are assembled to plastic trays to form electrode-containing wells. The device station receives the 16× or 96× microtiter plate devices and is capable of electronically switching any one of the wells to the sensor analyzer for impedance measurement. In operation, the devices with cells cultured in the wells are placed into a device station that is located inside an incubator. Electrical cables connect the device station to the sensor analyzer. Under the RT-CES software control, the sensor analyzer can automatically select wells to be measured and continuously conduct impedance measurements. The impedance data from the analyzer is transferred to a computer, analyzed and processed by the integrated software.\nas §3"}, "Bcap37": {"tested_on": "Bcap37", "assay": "RT-CES cell proliferation inhibition, Bcap37", "type": "cell-based", "settings": "Homo sapiens", "from_the_text": "as §1, §2, §3"}, "B16-luc": {"tested_on": "B16-luc", "assay": "RT-CES cell proliferation inhibition, B16-luc", "type": "cell-based, Rat", "settings": "Mus musculus", "from_the_text": "as §1, §2, §3"}, "S180 sarcoma": {"tested_on": "S180 sarcoma", "assay": "Anti-tumor activity against S180 bearing mouse model", "type": "in vivo, ICR mice", "settings": "for Inhibition Rate (%) / Tumor Weight: qd for 9 days; for Body Weight (g) Start: mouse, in vivo", "protocol": "ACEA100160 (2-(4-ethoxyphenyl)amino-4-(6-methylimidazo[1,2-a]pyrimidin-3-yl)thiazole) and ACEA 100162 (2-(4-ethoxyphenyl)amino-4-(6-methylimidazo[2,1-b]thiazol-5-yl)thiazole) are prepared at concentration of 8 mg/ml in solution containing 20% HP-beta-CD dextrose (D5W). The solvent HP-beta-CD solution is used as a vehicle negative control.\nICR mice, male, 21.4±1.5 g\nS180 sarcoma: murine cancer cell line S180.\nThe malignant ascites model of ICR mouse was induced by S180 cells.\nUnder a sterilized condition, sacrifice the ICR murine S180 bearing mice, take out of the ascites and dilute with NS to certain cell numbers. Inject 0.2 ml cell suspension (10^6 cells) subcutaneously into the left flank on ICR mice. On the first treatment day before iv or ip, implanted animals are randomly divided into ten groups as following. The drugs were administrated in the schedule of Table 11 respectively. The solvent HP-beta-CD solution is used as a vehicle negative control. Observe clinical signs at least daily.\nTumor weight was recorded. The tumor inhibitory rate was calculated as follows: inhibitory rate=1-Wt/W0, where Wt is the average weight of each drug treatment group and W0 is the average weight of negative control group. Results are given as mean±SD values from n animals. Comparisons between groups were made with Student's two-tailed t test and a P<0.05 was considered significant."}, "H460": {"tested_on": "H460", "assay": "RT-CES cell proliferation inhibition, H460", "type": "cell-based", "settings": "Homo sapiens, NCI-H460", "from_the_text": "as §1, §2, §3"}, "Jurkat": {"tested_on": "Jurkat", "assay": "RT-CES cell proliferation inhibition, Jurkat", "type": "cell-based", "settings": "Homo sapiens, 24 hrs", "from_the_text": "as §1, §2, §3"}}, "note": "Read-outs that look alike come from different tables or passages of the source."}
{"smiles": "Br.CCOc1ccc(Nc2nc(-c3c(C)nc4sccn34)cs2)cc1", "note": "[Compound 27, 2-(4-ethoxyphenyl)amino-4-(6-methylimidazo[2,1-b]thiazol-5-yl)thiazole]", "values": [{"measurement": "IC50", "setting": "Hela; 24 hrs, read-out: IC50 (24 hr)", "value": 5.85, "unit": "nM"}, {"measurement": "IC50", "setting": "Hela; 48 hrs, read-out: IC50 (48 hr)", "value": 6.95, "unit": "nM"}, {"measurement": "IC50", "setting": "GTL16; GTL16, 24 hrs, read-out: IC50 (24 hr)", "value": 138, "unit": "nM"}, {"measurement": "IC50", "setting": "GTL16; GTL16, 48 hrs, read-out: IC50 (48 hr)", "value": 2.1, "unit": "nM"}, {"measurement": "IC50", "setting": "MCF7; MCF7, 24 hrs, read-out: IC50 (24 hr)", "value": "> 200", "unit": "nM"}, {"measurement": "IC50", "setting": "MCF7; MCF7, 48 hrs, read-out: IC50 (48 hr)", "value": "> 200", "unit": "nM"}, {"measurement": "IC50", "setting": "HT1080; HT1080, 24 hrs, read-out: IC50 (24 hr)", "value": 2.39, "unit": "nM"}, {"measurement": "IC50", "setting": "HT1080; HT1080, 48 hrs, read-out: IC50 (48 hr)", "value": 2.69, "unit": "nM"}, {"measurement": "concentration at or above which cell indices first decreased with time and then increased", "setting": "A549 cells; A549, complex kinetic responses", "value": "≥ 62.5", "unit": "nM"}, {"measurement": "IC50", "setting": "A549 cells; A549, 24 hours after compound treatment, normalized Cell Index, read-out: IC50 (24 hr)", "value": 57.4, "unit": "nM"}, {"measurement": "IC50", "setting": "A549 cells; A549, 48 hrs, read-out: IC50 (48 hr)", "value": 29.1, "unit": "nM"}, {"measurement": "inhibitory ability against the proliferation of A549 cells", "setting": "A549 cells; various concentrations studied, time-dependent cell index", "value": "exhibited inhibitory ability against the proliferation of A549 cells"}, {"measurement": "IC50", "setting": "Bcap37; Bcap37, 24 hrs, read-out: IC50 (24 hr)", "value": 27.3, "unit": "nM"}, {"measurement": "IC50", "setting": "Bcap37; Bcap37, 48 hrs, read-out: IC50 (48 hr)", "value": 26, "unit": "nM"}, {"measurement": "IC50", "setting": "B16-luc; 24 hrs, read-out: IC50 (24 hr)", "value": 705, "unit": "nM"}, {"measurement": "IC50", "setting": "B16-luc; 48 hrs, read-out: IC50 (48 hr)", "value": 643, "unit": "nM"}, {"measurement": "Inhibition Rate (%)", "setting": "S180 sarcoma; S180, IP, 40 mg/kg", "value": 59.3, "unit": "%"}, {"measurement": "Tumor Weight", "setting": "S180 sarcoma; S180, IP, 40 mg/kg", "value": "0.61 ± 0.21", "unit": "g"}, {"measurement": "Inhibition Rate (%)", "setting": "S180 sarcoma; S180, IP, 80 mg/kg", "value": 77.2, "unit": "%"}, {"measurement": "Tumor Weight", "setting": "S180 sarcoma; S180, IP, 80 mg/kg", "value": "0.34 ± 0.16", "unit": "g"}, {"measurement": "Inhibition Rate (%)", "setting": "S180 sarcoma; S180, IV, 40 mg/kg", "value": 60.7, "unit": "%"}, {"measurement": "Tumor Weight", "setting": "S180 sarcoma; S180, IV, 40 mg/kg", "value": "0.59 ± 0.24", "unit": "g"}, {"measurement": "Body Weight (g) Start", "setting": "S180 sarcoma; ip, 40 mg/kg", "value": "20.6 ± 0.4", "unit": "g"}, {"measurement": "Body Weight (g) Start", "setting": "S180 sarcoma; ip, 80 mg/kg", "value": "21.8 ± 1.5", "unit": "g"}, {"measurement": "Body Weight (g) Start", "setting": "S180 sarcoma; iv, 40 mg/kg", "value": "21.0 ± 0.4", "unit": "g"}, {"measurement": "IC50", "setting": "H460; H460, 24 hrs after compound treatment, read-out: IC50 (24 hr)", "value": 12.3, "unit": "nM"}, {"measurement": "IC50", "setting": "H460; H460, 48 hrs after compound treatment, read-out: IC50 (48 hr)", "value": 16, "unit": "nM"}, {"measurement": "IC50", "setting": "Jurkat", "value": 45.4, "unit": "nM"}]}
